Legend:
[1] = molecular target: T1, Aurora-2 (Homo sapiens, UniProt O14965); test: Inhibition of AUR-2, coupled enzyme assay; type: biochemical; details: 70 nM Aurora-2, 800 μM peptide LRRASLG, 30° C.
T1 construct: addition of 10 μL of Aurora-2 stock solution to give a final concentration of 70 nM
T1 sequence (O14965 1-403): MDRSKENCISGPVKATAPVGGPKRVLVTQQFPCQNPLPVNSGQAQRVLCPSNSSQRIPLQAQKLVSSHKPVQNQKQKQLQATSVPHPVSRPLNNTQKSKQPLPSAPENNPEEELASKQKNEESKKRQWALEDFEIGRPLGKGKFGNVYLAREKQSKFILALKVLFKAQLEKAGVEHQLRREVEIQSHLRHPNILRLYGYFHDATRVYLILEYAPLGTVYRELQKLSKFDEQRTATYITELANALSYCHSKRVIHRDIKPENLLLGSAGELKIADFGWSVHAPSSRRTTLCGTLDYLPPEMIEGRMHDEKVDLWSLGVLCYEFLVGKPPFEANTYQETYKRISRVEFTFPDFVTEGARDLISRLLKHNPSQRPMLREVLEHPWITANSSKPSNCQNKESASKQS
Protocol: Compounds are screened in the following manner for their ability to inhibit Aurora-2 using a standard coupled enzyme assay (Fox et al. (1998) Protein Sci 7, 2249). To an assay stock buffer solution containing 0.1M HEPES 7.5, 10 mM MgCl2, 1 mM DTT, 25 mM NaCl, 2.5 mM phosphoenolpyruvate, […], […], […], and 800 μM peptide (LRRASLG, American Peptide, Sunnyvale, Calif.) is added a DMSO solution of a compound of the present invention to a final concentration of 30 μM. The resulting mixture is incubated at 30° C. for 10 min. The reaction was initiated by the addition of 10 μL of Aurora-2 stock solution to give a final concentration of 70 nM in the assay. The rates of reaction are obtained by monitoring absorbance at 340 nm over a 5 minute read time at 30° C. using a BioRad Ultramark plate reader (Hercules, Calif.). The Ki values are determined from the rate data as a function of inhibitor concentration.

[2] = molecular target: T2, TAK1A-TAB fusion protein (Homo sapiens, UniProt O43318); test: TAK-1 inhibition assay, radiometric filter binding assay; type: biochemical; details: 50 μM ATP, 12 μM bovine myelin basic protein, 20 nM TAK1A-TAB fusion protein
T2 construct: using 20 nM TAK1A-TAB fusion protein
T2 sequence (O43318 with tags, fused parts or gaps isoform O43318-2 limits assumed): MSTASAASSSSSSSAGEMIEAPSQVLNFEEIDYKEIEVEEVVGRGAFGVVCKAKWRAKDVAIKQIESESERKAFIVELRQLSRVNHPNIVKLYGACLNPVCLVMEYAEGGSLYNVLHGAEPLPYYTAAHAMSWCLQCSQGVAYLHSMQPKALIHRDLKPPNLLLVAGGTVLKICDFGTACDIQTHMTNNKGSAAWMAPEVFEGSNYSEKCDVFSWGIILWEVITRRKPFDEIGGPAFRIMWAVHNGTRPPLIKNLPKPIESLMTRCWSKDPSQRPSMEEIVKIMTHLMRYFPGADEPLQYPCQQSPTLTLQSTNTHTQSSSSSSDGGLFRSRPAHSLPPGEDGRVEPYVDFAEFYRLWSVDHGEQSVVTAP
Protocol: Compounds were screened for their ability to inhibit TAK1A kinase activity using a radiometric filter binding assay. Reactions were carried out in a solution containing Buffer A (100 mM HEPES (pH 7.5), 10 mM MgCl2), 25 mM NaCl, 2 mM DTT, and 1.5% DMSO. Final substrate concentrations in the assay were 50 μM ATP (a mixture of unlabeled ATP (Sigma Chemicals, St Louis, Mo.) and ^33P-labeled ATP (PerkinElmer Life Sciences, Boston, Mass.) for a final specific activity of 50 Ci/mol), and 12 μM bovine myelin basic protein (MBP, Vertex Pharmaceuticals, Cambridge, Mass.). Reactions were carried out at ambient temperature (˜20° C.) using 20 nM TAK1A-TAB fusion protein. Under these conditions the extent of reaction is linear with time for a period of 2 hours.
A test compound of the present invention (1 μL in DMSO) was combined with ATP and Buffer A in a final volume of 47 μL in a 96 well plate. Typically, a 6 point titration was conducted by preparing serial dilutions (from 10 mM compound stocks) with DMSO of the test compounds of the present invention in daughter plates, for final concentrations spanning 0.046 μM to 3.73 μM. The reaction was initiated by the addition of 20 μl of an enzyme stock solution consisting of TAK1A-TAB fusion (described by Sugita, T. et al. in Biochem. Biophys. Res. Comm. 2002, 297, 1277-1281), MBP, Buffer A, NaCl, and DTT. The reaction was allowed to proceed for two hours at ambient temperature, then quenched with an equal volume of 10 mM unlabeled ATP in 10% trichloroacetic acid. A 110 μL aliquot of the quenched reaction was transferred to a Multiscreen PH filter plate (Millipore, Billerica, Mass.) and allowed to incubate at ambient temperature overnight (typically 16-20 hours). Following incubation the filter plates were washed with 3×150 μL aliquots of 5% trichloroacetic acid using a modified Biotek Elx405 plate washer. A 70 μL aliquot of Microscint 20 scintillation fluid (PerkinElmer) was added to each well, and the plate was then sealed and read on a TopCount NXT microplate scintillation counter (PerkinElmer). The Ki values were determined from the rate data as a function of inhibitor concentration.

Row | SMILES | Ki [1] [µM] | Ki [2] [µM]
1 | Oc1cnc2[nH]cc(-c3oncc3-c3cccc(Cl)c3Cl)c2c1 [Compound 48, 3-[4-(2,3-Dichloro-phenyl)-isoxazol-5-yl]-1H-pyrrolo[2,3-b]pyridin-5-ol] | 0.2 to 1 | 0.2 to 1
2 | CC(=O)Nc1ccc(-c2cnc3[nH]cc(-c4oncc4-c4cccc(F)c4F)c3c2)cc1 [Compound 95, N-(4-{3-[4-(2,3-Difluoro-phenyl)-isoxazol-5-yl]-1H-pyrrolo[2,3-b]pyridin-5-yl}-phenyl)-acetamide] | < 0.2 | 
3 | COc1cncc(-c2cnc3[nH]cc(-c4oncc4-c4cccc(F)c4F)c3c2)c1 [Compound 96, 3-[4-(2,3-Difluoro-phenyl)-isoxazol-5-yl]-5-(5-methoxy-pyridin-3-yl)-1H-pyrrolo[2,3-b]pyridine] | < 0.2 | 
4 | CS(=O)(=O)Nc1ccc(-c2cnc3[nH]cc(-c4oncc4-c4cccc(F)c4F)c3c2)cc1 [Compound 98, N-(4-{3-[4-(2,3-Difluoro-phenyl)-isoxazol-5-yl]-1H-pyrrolo[2,3-b]pyridin-5-yl}-phenyl)-methane sulfonamide] | < 0.2 | 0.2 to 1
5 | Clc1cccc(-c2cnoc2-c2c[nH]c3ncc(-c4cccnc4)cc23)c1Cl [Compound 99, 3-[4-(2,3-Dichloro-phenyl)-isoxazol-5-yl]-5-pyridin-3-yl-1H-pyrrolo[2,3-b]pyridine] | < 0.2 | 0.2 to 1
6 | Cc1noc(-c2c[nH]c3ncccc23)c1-c1cccc(F)c1F [Compound 134, 3-[4-(2,3-Difluoro-phenyl)-3-methyl-isoxazol-5-yl]-1H-pyrrolo[2,3-b]pyridine] | 0.2 to 1 | 
7 | O=c1[nH]ccc2c(-c3oncc3-c3cccc(F)c3F)c[nH]c12 [Compound 145, 3-[4-(2,3-Difluoro-phenyl)-isoxazol-5-yl]-1,6-dihydro-pyrrolo[2,3-c]pyridin-7-one] | 0.2 to 1 | 

The remaining lines, values ahead:

Row | Ki [1] [µM] | Ki [2] [µM] | SMILES
8 | < 0.2 | 0.2 to 1 | COc1cnc2[nH]cc(-c3oncc3-c3cccc(Cl)c3Cl)c2c1 [Compound 49, 3-[4-(2,3-Dichloro-phenyl)-isoxazol-5-yl]-5-methoxy-1H-pyrrolo[2,3-b]pyridine]
9 | < 0.2 | < 0.2 | Fc1cccc(-c2cnoc2-c2c[nH]c3ncc(-c4ccc(N5CCNCC5)cc4)cc23)c1F [Compound 68, 3-[4-(2,3-Difluoro-phenyl)-isoxazol-5-yl]-5-(4-piperazin-1-yl-phenyl)-1H-pyrrolo[2,3-b]pyridine]
10 | < 0.2 | < 0.2 | CN1CCN(c2ccc(-c3cnc4[nH]cc(-c5oncc5-c5cccc(F)c5F)c4c3)cc2)CC1 [Compound 70, 3-[4-(2,3-Difluoro-phenyl)-isoxazol-5-yl]-5-[4-(4-methyl-piperazin-1-yl)-phenyl]-1H-pyrrolo[2,3-b]pyridine methanesulfonate]
11 | < 0.2 | < 0.2 | CN1CCN(c2ccc(-c3cnc4[nH]cc(-c5oncc5-c5cccc(F)c5F)c4c3)cn2)CC1 [Compound 71, 3-[4-(2,3-Difluoro-phenyl)-isoxazol-5-yl]-5-[6-(4-methyl-piperazin-1-yl)-pyridin-3-yl]-1H-pyrrolo[2,3-b]pyridine]

From patent US7446199B2, “Compositions useful as inhibitors of protein kinases” (Vertex Pharmaceuticals Incorporated, priority 2003, dated 2008)
